Source: publication PMC11743026, “Cortisol regulates neonatal lung development via Smoothened” (Respiratory Research, 2025)

Assays:
Smoothened (SMO) [1] = biological target: T1, Smoothened (SMO) (Homo sapiens, UniProt Q99835, Y394F); assay: pull-down of purified Y394F SMO on biotinylated cholesterol beads; type: binding
T1 construct: purified Y394F SMO

Smoothened (SMO) [2] = biological target: T2, Smoothened (SMO) (Homo sapiens, UniProt Q99835, L112A); assay: pull-down of purified L112A SMO or CRD on biotinylated cholesterol beads; type: binding
T2 construct: purified L112A SMO; also the L112A CRD fragment

Smoothened (SMO) [3] = biological target: T1, Smoothened (SMO); assay: free cortisol competes with biotinylated cholesterol beads for purified Y394F SMO; type: binding
Smoothened (SMO) [4] = biological target: T3, Smoothened (SMO) (Homo sapiens, UniProt Q99835); assay: Asp-evoked current in HeLa cells expressing WT SMO; effect lost with L112A; type: cell-based
T3 construct: full-length SMO expressed in HeLa cells
T3 sequence (Q99835 28-787): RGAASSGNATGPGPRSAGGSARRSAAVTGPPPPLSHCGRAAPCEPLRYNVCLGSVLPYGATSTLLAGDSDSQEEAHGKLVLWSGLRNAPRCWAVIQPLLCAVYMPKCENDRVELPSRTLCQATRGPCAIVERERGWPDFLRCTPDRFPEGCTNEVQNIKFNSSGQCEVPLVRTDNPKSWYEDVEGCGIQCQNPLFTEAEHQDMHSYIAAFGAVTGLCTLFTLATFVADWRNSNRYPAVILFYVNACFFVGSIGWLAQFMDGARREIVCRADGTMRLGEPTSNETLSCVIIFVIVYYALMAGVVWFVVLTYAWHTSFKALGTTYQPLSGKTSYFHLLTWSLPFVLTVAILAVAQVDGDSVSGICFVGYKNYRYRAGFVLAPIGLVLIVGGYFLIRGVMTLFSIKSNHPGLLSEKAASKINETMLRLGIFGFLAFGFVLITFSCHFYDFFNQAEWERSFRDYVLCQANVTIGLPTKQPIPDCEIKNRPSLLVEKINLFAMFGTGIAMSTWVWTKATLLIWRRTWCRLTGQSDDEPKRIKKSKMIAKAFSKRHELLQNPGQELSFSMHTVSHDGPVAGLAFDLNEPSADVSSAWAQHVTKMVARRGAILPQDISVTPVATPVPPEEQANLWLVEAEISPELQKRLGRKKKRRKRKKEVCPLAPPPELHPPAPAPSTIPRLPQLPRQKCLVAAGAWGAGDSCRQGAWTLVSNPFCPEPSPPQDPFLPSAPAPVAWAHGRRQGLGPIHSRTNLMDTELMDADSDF

T1 sequence (Q99835 28-787 Y394F): as the sequence (Q99835 28-787) above, with Y367F counted along it
T2 sequence (Q99835 28-787 L112A): as the sequence (Q99835 28-787) above, with L85A counted along it

## CC(C)CCC[C@@H](C)[C@H]1CC[C@H]2[C@@H]3CC=C4C[C@@H](O)CC[C@]4(C)[C@H]3CC[C@]12C [Chol, cholesterol]
Smoothened (SMO) [1]
  pull-down of purified Y394F SMO on biotinylated cholesterol beads: mutation of the Y394 to F394 did not change CB binding to the SMO
Smoothened (SMO) [2]
  pull-down of purified L112A SMO or CRD on biotinylated cholesterol beads: The CB remained binding to the purified WT and L112A SMO

## C[C@]12CCC(=O)C=C1CC[C@@H]1[C@@H]2[C@@H](O)C[C@@]2(C)[C@H]1CC[C@]2(O)C(=O)CO [Cort, cortisol]
Smoothened (SMO) [3]
  free cortisol competes with biotinylated cholesterol beads for purified Y394F SM: cortisol remained inhibiting the CB binding to the mutated SMO in a dose-dependent manner

## C[C@]12C[C@H](O)[C@H]3[C@@H](CCC4=CC(=O)CC[C@@]43C)[C@@H]1CC[C@@H]2C(=O)CO [corticosterone]
Smoothened (SMO) [4]
  Asp-evoked current in HeLa cells expressing WT SMO; effect lost with L112A: The corticosterone inhibition was not observed in the L112A mutant SMO cells
